In patent US20230085307A1, “PYRIDAZINONE COMPOUND AND HERBICIDE” (NISSAN CHEMICAL CORPORATION, priority 2019, published 2023):

How the values were obtained:
redroot pigweed = test: Test Example 4: herbicidal effect by soil treatment (Table 19, symbol N); assay type: in vivo, redroot pigweed (Amaranthus retroflexus)
Summary of the method: (§1)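 Applied as a water-diluted emulsion, the compound was sprayed onto soil covering newly sown seeds. Evaluation came three weeks after application, in a greenhouse held at 25° C. to 30° C.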

persian speedwell [1] = test: Test Example 4: herbicidal effect by soil treatment (Table 19, symbol R); assay type: in vivo, Persian speedwell (Veronica persica)
Summary of the method: as §1

barnyard grass [2] = test: Test Example 5: herbicidal effect by foliage application, plastic box (Table 20, symbol H); assay type: in vivo, barnyard grass (Echinochloa crus-galli); conditions: foliage application, 320 g/ha
Summary of the method: (§2)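 Sow seeds spot-wise in sterilized diluvial soil; cover with ~1.5 cm soil. Grow 14 days in greenhouse, 25° C. to 30° C. Spray foliage with emulsion diluted to predetermined amount. Rate effect after 3 weeks.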

blackgrass [3] = test: Test Example 4: herbicidal effect by soil treatment (Table 19, symbol J); assay type: in vivo, blackgrass (Alopecurus myosuroides)
Summary of the method: as §1

southern crabgrass [4] = test: Test Example 5: herbicidal effect by foliage application, plastic box (Table 20, symbol F); assay type: in vivo, southern crabgrass (Digitaria ciliaris); conditions: foliage application, 320 g/ha
Summary of the method: as §2

false cleavers = test: Test Example 4: herbicidal effect by soil treatment (Table 19, symbol Q); assay type: in vivo, false cleavers (Galium spurium)
Summary of the method: as §1

velvetleaf [5] = test: Test Example 4: herbicidal effect by soil treatment (Table 19, symbol M); assay type: in vivo, velvetleaf (Abutilon theophrasti)
Summary of the method: as §1

wild oat [6] = test: Test Example 5: herbicidal effect by foliage application, plastic box (Table 20, symbol I); assay type: in vivo, wild oat (Avena fatua); conditions: foliage application, 320 g/ha
Summary of the method: as §2

wild oat [7] = test: Test Example 4: herbicidal effect by soil treatment (Table 19, symbol I); assay type: in vivo, wild oat (Avena fatua)
Summary of the method: as §1

southern crabgrass [8] = test: Test Example 4: herbicidal effect by soil treatment (Table 19, symbol F); assay type: in vivo, southern crabgrass (Digitaria ciliaris)
Summary of the method: as §1

Italian ryegrass [9] = test: Test Example 4: herbicidal effect by soil treatment (Table 19, symbol K); assay type: in vivo, Italian ryegrass (Lolium multiflorum)
Summary of the method: as §1

lambsquarters [10] = test: Test Example 5: herbicidal effect by foliage application, plastic box (Table 20, symbol O); assay type: in vivo, lambsquarters (Chenopodium album); conditions: foliage application, 320 g/ha
Summary of the method: as §2

lambsquarters [11] = test: Test Example 4: herbicidal effect by soil treatment (Table 19, symbol O); assay type: in vivo, lambsquarters (Chenopodium album)
Summary of the method: as §1

barnyard grass [12] = test: Test Example 4: herbicidal effect by soil treatment (Table 19, symbol H); assay type: in vivo, barnyard grass (Echinochloa crus-galli)
Summary of the method: as §1

green foxtail [13] = test: Test Example 4: herbicidal effect by soil treatment (Table 19, symbol G); assay type: in vivo, green foxtail (Setaria viridis)
Summary of the method: as §1

barnyard grass [14] = test: Test Example 3: herbicidal effect by foliage application, Wagner pot (Table 18, symbol H); assay type: in vivo, barnyard grass (Echinochloa crus-galli)
Summary of the method: (§3)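 Plants were sown in alluvial soil held under 0.1–0.5 cm standing water and grown 14 days in a greenhouse at 25–30 °C. An emulsifiable formulation, water-diluted to the set dose, was then sprayed onto the foliage, and effects were scored three weeks later using previously defined criteria.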

windgrass [15] = test: Test Example 4: herbicidal effect by soil treatment (Table 19, symbol L); assay type: in vivo, windgrass (Apera spica-venti)
Summary of the method: as §1

windgrass [16] = test: Test Example 5: herbicidal effect by foliage application, plastic box (Table 20, symbol L); assay type: in vivo, windgrass (Apera spica-venti); conditions: foliage application, 320 g/ha
Summary of the method: as §2

blackgrass [17] = test: Test Example 5: herbicidal effect by foliage application, plastic box (Table 20, symbol J); assay type: in vivo, blackgrass (Alopecurus myosuroides); conditions: foliage application, 320 g/ha
Summary of the method: as §2

velvetleaf [18] = test: Test Example 5: herbicidal effect by foliage application, plastic box (Table 20, symbol M); assay type: in vivo, velvetleaf (Abutilon theophrasti); conditions: foliage application, 320 g/ha
Summary of the method: as §2

Chinese sprangletop = test: Test Example 3: herbicidal effect by foliage application, Wagner pot (Table 18, symbol D); assay type: in vivo, chinese sprangletop (Leptochloa chinensis)
Summary of the method: as §3

Italian ryegrass [19] = test: Test Example 5: herbicidal effect by foliage application, plastic box (Table 20, symbol K); assay type: in vivo, Italian ryegrass (Lolium multiflorum); conditions: foliage application, 320 g/ha
Summary of the method: as §2

rice flat sedge = test: Test Example 3: herbicidal effect by foliage application, Wagner pot (Table 18, symbol E); assay type: in vivo, rice flat sedge (Cyperus iria)
Summary of the method: as §3

green foxtail [20] = test: Test Example 5: herbicidal effect by foliage application, plastic box (Table 20, symbol G); assay type: in vivo, green foxtail (Setaria viridis); conditions: foliage application, 320 g/ha
Summary of the method: as §2

persian speedwell [21] = test: Test Example 5: herbicidal effect by foliage application, plastic box (Table 20, symbol R); assay type: in vivo, Persian speedwell (Veronica persica); conditions: foliage application, 320 g/ha
Summary of the method: as §2

chickweed = test: Test Example 4: herbicidal effect by soil treatment (Table 19, symbol P); assay type: in vivo, common chickweed (Stellaria media)
Summary of the method: as §1

[22] = amount of applied herbicide 320 g/ha

SMILES: Cc1nn(C)c(=O)c(-c2c(-c3ccc(CSCC(F)(F)F)cc3)sc3ccccc23)c1O [1-249]
- N: redroot pigweed, herbicidal effect rating (redroot pigweed; AAH 320 g/ha): 3 (Herbicidal rate of 40% or more and less than 70%)
- R: persian speedwell, herbicidal effect rating (persian speedwell [1]; AAH 320 g/ha): 4 (Herbicidal rate of 70% or more and less than 90%)
- effect on barnyard grass (H) (barnyard grass [2]; 3 weeks after application): 4 (Herbicidal rate of 70% or more and less than 90%)
- J: blackgrass, herbicidal effect rating (blackgrass [3]; AAH 320 g/ha): 0 (Herbicidal rate of 5% or less (almost no effect))
- effect on southern crabgrass (F) (southern crabgrass [4]; 3 weeks after application): 4 (Herbicidal rate of 70% or more and less than 90%)
- Q: false cleavers, herbicidal effect rating (false cleavers; AAH 320 g/ha): 0 (Herbicidal rate of 5% or less (almost no effect))
- M: velvetleaf, herbicidal effect rating (velvetleaf [5]; AAH 320 g/ha): 0 (Herbicidal rate of 5% or less (almost no effect))
- effect on wild oat (I) (wild oat [6]; 3 weeks after application): 0 (Herbicidal rate of 5% or less (almost no effect))
- I: wild oat, herbicidal effect rating (wild oat [7]; AAH 320 g/ha): 0 (Herbicidal rate of 5% or less (almost no effect))
- F: southern crabgrass, herbicidal effect rating (southern crabgrass [8]; AAH 320 g/ha): 0 (Herbicidal rate of 5% or less (almost no effect))
- K: Italian ryegrass, herbicidal effect rating (Italian ryegrass [9]; AAH 320 g/ha): 3 (Herbicidal rate of 40% or more and less than 70%)
- effect on lambsquarters (O) (lambsquarters [10]; 3 weeks after application): 5 (Herbicidal rate of 90% or more (almost completely withered))
- O: lambsquarters, herbicidal effect rating (lambsquarters [11]; AAH 320 g/ha): 3 (Herbicidal rate of 40% or more and less than 70%)
- H: barnyard grass, herbicidal effect rating (barnyard grass [12]; AAH 320 g/ha): 0 (Herbicidal rate of 5% or less (almost no effect))
- G: green foxtail, herbicidal effect rating (green foxtail [13]; AAH 320 g/ha): 0 (Herbicidal rate of 5% or less (almost no effect))
- herbicidal effect on H (barnyard grass), rating 0-5 (barnyard grass [14]; 320 g/ha): 5 (Herbicidal rate of 90% or more (almost completely withered))
- L: windgrass, herbicidal effect rating (windgrass [15]; AAH 320 g/ha): 0 (Herbicidal rate of 5% or less (almost no effect))
- effect on windgrass (L) (windgrass [16]; 3 weeks after application): 0 (Herbicidal rate of 5% or less (almost no effect))
- effect on blackgrass (J) (blackgrass [17]; 3 weeks after application): 0 (Herbicidal rate of 5% or less (almost no effect))
- effect on velvetleaf (M) (velvetleaf [18]; 3 weeks after application): 5 (Herbicidal rate of 90% or more (almost completely withered))
- herbicidal effect on D (Chinese sprangletop), rating 0-5 (Chinese sprangletop; 320 g/ha): 3 (Herbicidal rate of 40% or more and less than 70%)
- effect on Italian ryegrass (K) (Italian ryegrass [19]; 3 weeks after application): 4 (Herbicidal rate of 70% or more and less than 90%)
- herbicidal effect on E (rice flat sedge), rating 0-5 (rice flat sedge; 320 g/ha): 3 (Herbicidal rate of 40% or more and less than 70%)
- effect on green foxtail (G) (green foxtail [20]; 3 weeks after application): 4 (Herbicidal rate of 70% or more and less than 90%)
- effect on persian speedwell (R) (persian speedwell [21]; 3 weeks after application): 5 (Herbicidal rate of 90% or more (almost completely withered))
- P: chickweed, herbicidal effect rating (chickweed; AAH 320 g/ha): 0 (Herbicidal rate of 5% or less (almost no effect))

SMILES: CCSc1ccc(-c2oc3ccc(F)cc3c2-c2c(O)c(C)nn(C)c2=O)cc1 [9-039]
- N: redroot pigweed, herbicidal effect grade (redroot pigweed; [22]): 5 (Herbicidal rate of 90% or more (almost completely withered))
- R: persian speedwell, herbicidal effect grade (persian speedwell [1]; [22]): 5 (Herbicidal rate of 90% or more (almost completely withered))
- herbicidal effect on barnyard grass (H) (barnyard grass [2]; three weeks after application): 3 (Herbicidal rate of 40% or more and less than 70%)
- J: blackgrass, herbicidal effect grade (blackgrass [3]; [22]): 0 (Herbicidal rate of 5% or less (almost no effect))
- herbicidal effect on southern crabgrass (F) (southern crabgrass [4]; three weeks after application): 5 (Herbicidal rate of 90% or more (almost completely withered))
- Q: false cleavers, herbicidal effect grade (false cleavers; [22]): 0 (Herbicidal rate of 5% or less (almost no effect))
- M: velvetleaf, herbicidal effect grade (velvetleaf [5]; [22]): 3 (Herbicidal rate of 40% or more and less than 70%)
- herbicidal effect on wild oat (I) (wild oat [6]; three weeks after application): 4 (Herbicidal rate of 70% or more and less than 90%)
- I: wild oat, herbicidal effect grade (wild oat [7]; [22]): 0 (Herbicidal rate of 5% or less (almost no effect))
- F: southern crabgrass, herbicidal effect grade (southern crabgrass [8]; [22]): 4 (Herbicidal rate of 70% or more and less than 90%)
- K: Italian ryegrass, herbicidal effect grade (Italian ryegrass [9]; [22]): 5 (Herbicidal rate of 90% or more (almost completely withered))
- herbicidal effect on lambsquarters (O) (lambsquarters [10]; three weeks after application): 5 (Herbicidal rate of 90% or more (almost completely withered))
- O: lambsquarters, herbicidal effect grade (lambsquarters [11]; [22]): 4 (Herbicidal rate of 70% or more and less than 90%)
- H: barnyard grass, herbicidal effect grade (barnyard grass [12]; [22]): 2 (Herbicidal rate of 20% or more and less than 40%)
- G: green foxtail, herbicidal effect grade (green foxtail [13]; [22]): 5 (Herbicidal rate of 90% or more (almost completely withered))
- Herbicidal effect on H (barnyard grass), foliage application (barnyard grass [14]; [22]): 5 (Herbicidal rate of 90% or more (almost completely withered))
- L: windgrass, herbicidal effect grade (windgrass [15]; [22]): 0 (Herbicidal rate of 5% or less (almost no effect))
- herbicidal effect on windgrass (L) (windgrass [16]; three weeks after application): 5 (Herbicidal rate of 90% or more (almost completely withered))
- herbicidal effect on blackgrass (J) (blackgrass [17]; three weeks after application): 4 (Herbicidal rate of 70% or more and less than 90%)
- herbicidal effect on velvetleaf (M) (velvetleaf [18]; three weeks after application): 5 (Herbicidal rate of 90% or more (almost completely withered))
- Herbicidal effect on D (Chinese sprangletop), foliage application (Chinese sprangletop; [22]): 1 (Herbicidal rate of 5% or more and less than 20%)
- herbicidal effect on Italian ryegrass (K) (Italian ryegrass [19]; three weeks after application): 5 (Herbicidal rate of 90% or more (almost completely withered))
- Herbicidal effect on E (rice flat sedge), foliage application (rice flat sedge; [22]): 5 (Herbicidal rate of 90% or more (almost completely withered))
- herbicidal effect on green foxtail (G) (green foxtail [20]; three weeks after application): 5 (Herbicidal rate of 90% or more (almost completely withered))
- herbicidal effect on persian speedwell (R) (persian speedwell [21]; three weeks after application): 5 (Herbicidal rate of 90% or more (almost completely withered))
- P: chickweed, herbicidal effect grade (chickweed; [22]): 3 (Herbicidal rate of 40% or more and less than 70%)
